Assay [1] in a line: Inhibition of bovine brain tubulin polymerization preincubated for 15 mins followed by GTP addition measured after 20 mins by spectrophotometric method. Set-up: species or system Bos taurus.
The species named for assay [2] is Bos taurus. The assay can be described thus: Inhibition of [3H]colchicine binding to bovine brain tubulin at 5 uM after 10 mins by scintillation counting method relative to control.
Assay [3] has as its system NCI-H460. The assay is described as follows: Growth inhibition of human NCI-H460 cells after 48 hrs by SRB assay. The format is functional. Conditions: NCI-H460, 48 h. On the technique in general: Sulforhodamine B stains cellular protein and so reports cell mass.
Assay [4] concerns DU-145. The assay can be described thus: Growth inhibition of human DU145 cells after 48 hrs by SRB assay. The assay is classed as functional. Conditions: DU-145, 48 h.
The test system of assay [5] is SK-OV-3. The assay is described as follows: Growth inhibition of human SKOV3 cells after 48 hrs by SRB assay. The format is functional. The conditions noted are these: SK-OV-3, 48 h.
Assay [6] deals with MCF7. The assay is described as follows: Induction of vascular disruption in human luc-GFP-mCherry-tagged MCF7 cells implanted in SCID-NOD mouse assessed as reduction in bioluminescence at 120 mg/kg, ip administered as single dose measured at 4 hrs post dose by luciferase reporter gene based imaging analysis relative to control. The format is functional. Set-up: scale not given: the % may be the effect or the level left. (A reporter such as luciferase makes a cellular process visible.)

Assay [7] concerns MCF7. The assay can be described thus: Induction of necrosis in human luc-GFP-mCherry-tagged MCF7 cells implanted in SCID-NOD mouse at 120 mg/kg, ip administered as single dose measured after 48 hrs by haematoxylin and eosin staining based microscopy. The format is functional, organism-based.
Assay [8] relates to MCF7. The assay is described as follows: Induction of vascular disruption in human luc-GFP-mCherry-tagged MCF7 cells implanted in SCID-NOD mouse assessed as reduction in bioluminescence at 120 mg/kg, ip administered as single dose measured at 24 to 48 hrs post dose by luciferase reporter gene based imaging analysis. The assay is classed as functional, organism-based.

Calls of active or inactive are those of the source. No cut-off for these calls is given here. Bounds are passed on as bounds.

As to `COc1ccc2c(c1)CCCC/C=C\2c1cc(OC)c(OC)c(OC)c1`, in assay [1], half-maximal inhibition (IC50) required 3000 nM. In assay [2], the inhibition (in general, the share of the control response that was lost under treatment) came out at 29%. Further, the GI50 (as a rule, the concentration that inhibits growth by half) was 431 nM in assay [3], 570 nM in assay [4] and 400 nM in assay [5].

On to `COc1ccc2c(c1)CC=C2c1cc(OC)c(OC)c(OC)c1`, for which, in assay [1], the half-inhibitory concentration (IC50) (usually the concentration at which inhibition is half-maximal) is > 20000 nM. The results for the GI50 in assay [3], in assay [4] and in assay [5] were 4020 nM, 4660 nM and 6150 nM, respectively.

Consider `COc1ccc(/C=C\c2cc(OC)c(OC)c(OC)c2)cc1OP(=O)(O)O` [FOSBRETABULIN], for which, in assay [1], the IC50 is > 20000 nM. In addition, the figures for the 50% growth inhibitory concentration (GI50) in assay [3], in assay [4] and in assay [5] were 2.82 nM, 3.36 nM and 1.9 nM, respectively. For the same molecule, in assay [6], the Activity is 80%. Besides, the result in assay [7] was Active.

With `COc1ccc2c(c1O)CCCC/C=C\2c1cc(OC)c(OC)c(OC)c1`, the half-maximal inhibitory concentration (IC50) in assay [1] was 1200 nM. The molecule further came in with an inhibition in assay [2] of 78%. Moreover, the concentration for 50% growth inhibition (GI50) in assay [3] is 107 nM; in assay [4], 105 nM; in assay [5] it was 81.1 nM.

Turning to `COc1cc(/C2=C/CCCCc3c2ccc(OC)c3OP(=O)([O-])[O-])cc(OC)c1OC.[Na+].[Na+]`, the concentration for half-maximal inhibition (IC50) in assay [1] was > 20000 nM. Also, the results for the 50% growth inhibitory concentration (GI50) in assay [3], in assay [4] and in assay [5] were 26 nM, 41 nM and 36.6 nM, respectively. Besides, the Activity in assay [6] was 80%. For the same molecule, the result in assay [8] and in assay [7] was Active.

`COc1cc(C2=CCc3c2ccc(OC)c3OC)cc(OC)c1OC`: the IC50 in assay [1] is > 20000 nM. The GI50 in assay [3] was 42200 nM; in assay [4], 34600 nM; in assay [5] it was 9460 nM.

`COc1cc(/C2=C/CCCCc3c2ccc(OC)c3OC)cc(OC)c1OC`: the IC50 in assay [1] was 4500 nM. Moreover, the inhibition in assay [2] came out at 31%. The GI50 in assay [3] was found to be 395 nM; in assay [4] it was 448 nM; in assay [5], 512 nM.

In the case of `COc1cc(C2=CCc3c2ccc(OC)c3OP(=O)(O)O)cc(OC)c1OC`, in assay [1], the 50% inhibitory concentration (IC50) is > 20000 nM. Moreover, the GI50 in assay [3] was found to be 1500 nM; in assay [4], 3340 nM; in assay [5] it was 334 nM.

Turning to `COc1ccc2c(c1O)CC=C2c1cc(OC)c(OC)c(OC)c1`, in assay [1], it took 11000 nM to reach half-maximal inhibition (IC50). For the same molecule, the inhibition in assay [2] came to 17%. Moreover, the GI50 turned out to be 388 nM in assay [3], 362 nM in assay [4] and 704 nM in assay [5].

Source of the values: ChEMBL document CHEMBL4190184, “Synthesis and Biological Evaluation of Benzocyclooctene-based and Indene-based Anticancer Agents that Function as Inhibitors of Tubulin Polymerization” (Medchemcomm, 2016).
